Several values for one entry are separate records, joined by “and”; a condition that tells them apart may be missing. Equal entries are not always repeated. Inconclusive results and toxic doses are left out.
Tested on: BDF1 mice, P1081 chloroleukemia ip, survival T/C
Test: NCI In Vivo Anticancer Drug Screen. Data for tumor model P1081 Chloroleukemia (intraperitoneal) in B6D2F1 (BDF1) mice
Conditions: endpoint: mean survival time, higher = longer survival
Experimental: The antitumor activity of compounds was measured in mice bearing transplantable tumors. Survival or tumor size were measured and the results are expressed as the measurement made in the treated group (T) divided by the measurement made in the vehicle treated control group (C). The tumor model used in this assay is P1081 Chloroleukemia (intraperitoneal) in B6D2F1 (BDF1) mice

[1] = dose: 5.0 mg/kg/injection, schedule: Q01DX010 (ip), vehicle: saline
[2] = dose: 10.0 mg/kg/injection, schedule: Q01DX010 (ip), vehicle: saline
[3] = dose: 20.0 mg/kg/injection, schedule: Q01DX010 (ip), vehicle: saline
[4] = dose: 40.0 mg/kg/injection, schedule: Q01DX010 (ip), vehicle: saline
[5] = dose: 0.25 mg/kg/injection, schedule: Q01DX Z (ip), vehicle: carboxymethylcellulose (CMC)
[6] = dose: 3.13 mg/kg/injection, schedule: Q01DX010 (ip), vehicle: saline
[7] = dose: 6.25 mg/kg/injection, schedule: Q01DX010 (ip), vehicle: saline

N=C(N)c1ccc(Nc2ccc(C(=N)N)cc2)cc1 was tested, and the T/C (dose: 0.8 mg/kg/injection, schedule: Q01DX Z (ip), vehicle: methylcellulose (MC)) was 95 % of control, the T/C (dose: 1.6 mg/kg/injection, schedule: Q01DX Z (ip), vehicle: methylcellulose (MC)) was 107 % of control and the T/C (dose: 3.0 mg/kg/injection, schedule: Q01DX010 (ip), vehicle: saline) was 111 % of control. The T/C (dose: 3.1 mg/kg/injection, schedule: Q01DX Z (ip), vehicle: methylcellulose (MC)) was 96 % of control and 103 % of control, the T/C (dose: 6.0 mg/kg/injection, schedule: Q01DX010 (ip), vehicle: saline) was 100 % of control and the T/C (dose: 6.3 mg/kg/injection, schedule: Q01DX Z (ip), vehicle: methylcellulose (MC)) was 99 % of control. For the same compound, the T/C (dose: 12.0 mg/kg/injection, schedule: Q01DX010 (ip), vehicle: saline) was 100 % of control and the T/C (dose: 12.5 mg/kg/injection, schedule: Q01DX Z (ip), vehicle: methylcellulose (MC)) was 98 % of control.
With CN(C)c1ccc(/C=C/c2ccnc3ccccc23)cc1 the T/C (dose: 1.56 mg/kg/injection, schedule: Q01DX Z (ip), vehicle: water) was 100 % of control, the T/C (dose: 3.12 mg/kg/injection, schedule: Q01DX Z (ip), vehicle: water) was 94 % of control and the T/C [1] was 111 % of control and 100 % of control. For the same compound, the T/C (dose: 6.25 mg/kg/injection, schedule: Q01DX Z (ip), vehicle: carboxymethylcellulose (CMC)) was 110 % of control, the T/C (dose: 6.25 mg/kg/injection, schedule: Q01DX Z (ip), vehicle: water) was 101 % of control and the T/C [2] was 110 % of control and 100 % of control. The T/C (dose: 12.5 mg/kg/injection, schedule: Q01DX Z (ip), vehicle: carboxymethylcellulose (CMC)) was 115 % of control, the T/C (dose: 12.5 mg/kg/injection, schedule: Q01DX Z (ip), vehicle: water) was 107 % of control and the T/C [3] was 111 % of control and 100 % of control. For the same compound, the T/C (dose: 25.0 mg/kg/injection, schedule: Q01DX Z (ip), vehicle: carboxymethylcellulose (CMC)) was 102 % of control, the T/C [4] was 111 % of control and 95 % of control and the T/C (dose: 50.0 mg/kg/injection, schedule: Q01DX Z (ip), vehicle: carboxymethylcellulose (CMC)) was 119 % of control and 97 % of control. For the same compound, the T/C (dose: 100.0 mg/kg/injection, schedule: Q01DX Z (ip), vehicle: carboxymethylcellulose (CMC)) was 104 % of control.
CN1CC[C@]23c4c5ccc(O)c4O[C@H]2C(=O)CC[C@H]3[C@H]1C5 was tested, and the T/C (dose: 2.0 mg/kg/injection, schedule: Q01DX010 (ip), vehicle: saline) was 105 % of control, the T/C (dose: 4.0 mg/kg/injection, schedule: Q01DX010 (ip), vehicle: saline) was 90 % of control and 100 % of control and the T/C (dose: 8.0 mg/kg/injection, schedule: Q01DX010 (ip), vehicle: saline) was 90 % of control and 105 % of control. For the same compound, the T/C (dose: 16.0 mg/kg/injection, schedule: Q01DX010 (ip), vehicle: saline) was 90 % of control and 100 % of control.
For Nc1nc(=S)c2[nH]cnc2[nH]1, the T/C [5] was 169 % of control, the T/C (dose: 1.0 mg/kg/injection, schedule: Q01DX Z (ip), vehicle: carboxymethylcellulose (CMC)) was 91 % of control and the T/C (dose: 1.25 mg/kg/injection, schedule: Q01DX010 (ip), vehicle: other) was 150 % of control. For the same compound, the T/C (dose: 2.5 mg/kg/injection, schedule: Q01DX010 (ip), vehicle: other) was 110 % of control and 113 % of control, the T/C (dose: 5.0 mg/kg/injection, schedule: Q01DX010 (ip), vehicle: other) was 110 % of control and the T/C (dose: 31.2 micrograms/kg/injection, schedule: Q01DX Z (ip), vehicle: carboxymethylcellulose (CMC)) was 100 % of control. For the same compound, the T/C (dose: 62.5 micrograms/kg/injection, schedule: Q01DX Z (ip), vehicle: carboxymethylcellulose (CMC)) was 103 % of control and the T/C (dose: 250.0 micrograms/kg/injection, schedule: Q01DX Z (ip), vehicle: carboxymethylcellulose (CMC)) was 155 % of control.
NC(Cc1ccc(N(CCCl)CCCl)cc1)C(=O)O (centres undefined) was tested, and the T/C (dose: 1.25 mg/kg/injection, schedule: Q01DX Z (ip), vehicle: carboxymethylcellulose (CMC)) was 115 % of control, the T/C (dose: 2.5 mg/kg/injection, schedule: Q01DX010 (ip), vehicle: saline) was 150 % of control and 333 % of control and the T/C [1] was 327 % of control. The T/C (dose: 5.0 mg/kg/injection, schedule: Q01DX Z (ip), vehicle: carboxymethylcellulose (CMC)) was 189 % of control, the T/C [2] was 90 % of control and the T/C (dose: 10.0 mg/kg/injection, schedule: Q01DX Z (ip), vehicle: carboxymethylcellulose (CMC)) was 90 % of control.
CCCNc1ncnc2[nH]ncc12 was tested, and the T/C [6] was 100 % of control, the T/C (dose: 5.0 mg/kg/injection, schedule: Q01DX Z (ip), vehicle: water) was 90 % of control and the T/C [7] was 100 % of control. For the same compound, the T/C (dose: 10.0 mg/kg/injection, schedule: Q01DX Z (ip), vehicle: water) was 93 % of control, the T/C (dose: 20.0 mg/kg/injection, schedule: Q01DX Z (ip), vehicle: water) was 102 % of control and the T/C (dose: 25.0 mg/kg/injection, schedule: Q01DX010 (ip), vehicle: saline) was 90 % of control.
O=c1[nH]cc(F)c(=O)[nH]1 was tested, and the T/C (dose: 1.56 mg/kg/injection, schedule: Q01DX Z (ip), vehicle: saline) was 99 % of control, the T/C [2] was 161 % of control and 165 % of control and the T/C (dose: 12.5 mg/kg/injection, schedule: Q01DX Z (ip), vehicle: saline) was 150 % of control. For the same compound, the T/C [3] was 200 % of control and 230 % of control, the T/C [4] was 110 % of control and 94 % of control and the T/C (dose: 50.0 mg/kg/injection, schedule: Q01DX Z (ip), vehicle: saline) was 108 % of control. For the same compound, the T/C (dose: 100.0 mg/kg/injection, schedule: Q01DX Z (ip), vehicle: saline) was 96 % of control.
With CN(Cc1cnc2nc(N)nc(N)c2n1)c1ccc(C(=O)N[C@@H](CCC(=O)O)C(=O)O)cc1 the T/C (dose: 0.03 mg/kg/injection, schedule: Q01DX Z (ip), vehicle: other) was 160 % of control, the T/C (dose: 0.06 mg/kg/injection, schedule: Q01DX Z (ip), vehicle: other) was 115 % of control and the T/C (dose: 0.07 mg/kg/injection, schedule: Q01DX Z (ip), vehicle: other) was 113 % of control. For the same compound, the T/C (dose: 0.15 mg/kg/injection, schedule: Q01DX Z (ip), vehicle: other) was 117 % of control and 122 % of control, the T/C (dose: 0.19 mg/kg/injection, schedule: Q01DX010 (ip), vehicle: other) was 110 % of control and 120 % of control and 121 % of control and the T/C (dose: 0.24 mg/kg/injection, schedule: Q01DX Z (ip), vehicle: other) was 189 % of control. The T/C (dose: 0.31 mg/kg/injection, schedule: Q01DX Z (ip), vehicle: other) was 111 % of control and 117 % of control, the T/C (dose: 0.38 mg/kg/injection, schedule: Q01DX010 (ip), vehicle: other) was 123 % of control and the T/C (dose: 0.47 mg/kg/injection, schedule: Q01DX Z (ip), vehicle: other) was 226 % of control. For the same compound, the T/C (dose: 0.62 mg/kg/injection, schedule: Q01DX Z (ip), vehicle: other) was 110 % of control and 113 % of control, the T/C (dose: 0.75 mg/kg/injection, schedule: Q01DX010 (ip), vehicle: other) was 150 % of control and 160 % of control and 170 % of control and the T/C (dose: 0.94 mg/kg/injection, schedule: Q01DX Z (ip), vehicle: other) was 92 % of control. The T/C (dose: 1.5 mg/kg/injection, schedule: Q01DX010 (ip), vehicle: other) was 187 % of control and 207 % of control and 210 % of control, the T/C (dose: 1.88 mg/kg/injection, schedule: Q01DX Z (ip), vehicle: other) was 98 % of control and the T/C (dose: 3.0 mg/kg/injection, schedule: Q01DX010 (ip), vehicle: other) was 106 % of control and 108 % of control and 105 % of control.
O[C@H](CN1CC1)[C@@H](O)CN1CC1 was tested, and the T/C (dose: 0.12 mg/kg/injection, schedule: Q01DX Z (ip), vehicle: carboxymethylcellulose (CMC)) was 193 % of control, the T/C [5] was 204 % of control and the T/C (dose: 0.5 mg/kg/injection, schedule: Q01DX Z (ip), vehicle: carboxymethylcellulose (CMC)) was 117 % of control. The T/C (dose: 16.0 micrograms/kg/injection, schedule: Q01DX Z (ip), vehicle: carboxymethylcellulose (CMC)) was 100 % of control, the T/C (dose: 62.5 micrograms/kg/injection, schedule: Q01DX010 (ip), vehicle: saline) was 316 % of control and the T/C (dose: 125.0 micrograms/kg/injection, schedule: Q01DX010 (ip), vehicle: saline) was 210 % of control and 261 % of control. For the same compound, the T/C (dose: 125.0 micrograms/kg/injection, schedule: Q01DX Z (ip), vehicle: carboxymethylcellulose (CMC)) was 157 % of control, the T/C (dose: 250.0 micrograms/kg/injection, schedule: Q01DX010 (ip), vehicle: saline) was 288 % of control and the T/C (dose: 500.0 micrograms/kg/injection, schedule: Q01DX010 (ip), vehicle: saline) was 150 % of control and 177 % of control.
In the case of O=NN(CCCl)C(=O)NCCCl, the T/C (dose: 1.0 mg/kg/injection, schedule: Q01DX Z (ip), vehicle: saline) was 95 % of control, the T/C (dose: 2.0 mg/kg/injection, schedule: Q01DX Z (ip), vehicle: saline) was 112 % of control and 96 % of control and the T/C [6] was 220 % of control. The T/C (dose: 4.0 mg/kg/injection, schedule: Q01DX Z (ip), vehicle: saline) was 114 % of control and 116 % of control, the T/C [7] was 290 % of control and 300 % of control and the T/C (dose: 8.0 mg/kg/injection, schedule: Q01DX Z (ip), vehicle: saline) was 118 % of control. The T/C (dose: 12.5 mg/kg/injection, schedule: Q01DX010 (ip), vehicle: saline) was 150 % of control and the T/C (dose: 16.0 mg/kg/injection, schedule: Q01DX Z (ip), vehicle: saline) was 92 % of control.

Source: PubChem BioAssay AID246 (DTP/NCI, 2004)
